In patent US3968230A, “Compositions containing benzodiazepindiones and method of use” (American Cyanamid Company, priority 1975, dated 1976):

Test system: Clonic Seizures Caused by Pentylenetetrazole
Assay: Protection against clonic seizures caused by pentylenetetrazole in rats
Type: in vivo
Settings: oral; for ED50: Rattus norvegicus, 2% starch vehicle, groups of at least 5 rats, pentylenetetrazole 21 to 23 mg/kg i.v. at estimated time of peak effect, protection of 50% of animals (Litchfield and Wilcoxon), read-out: Median Effective Oral Dose ED50 (protection against clonic seizures caused by pentylenetetrazole); for effectiveness as anxiolytic agent relative to the respective dextrorotatory and racemic forms of the desmethyl prior art compound (Compounds 3 and 4): rats, from ED50 table
Description: The anti-anxiety properties of the active components of the present invention have been established in a test which indicates anxiolytic activity by a measure of protection from convulsions resulting from the administration of pentylenetetrazol. Graded dose levels of the dextro and racemic forms of the compound 1,2,3,11a-tetrahydro-10-mthyl-5H-pyrrolo[2,1-c] [1,4]benzodiazepin-5,11(10H)-dione are administered orally, in a 2% starch vehicle, to groups of at least 5 rats. At the estimated time of peak effect, the rats are treated intravenously with pentylenetetrazole at a dose of 21 to 23 mg./kg. of body weight. This dose is estimated to cause clonic seizures in 99% of unprotected rats. The effective dose of the test compound for protection of 50% of the animals is calculated by the method of J. T. Litchfield and F. Wilcoxon, Journal of Pharmacology and Experimental Therapeutics, 96, 99 (1949). The results are given in the table which follows in comparison with Librium (chlordiazepoxide), Valium (diazepam) and the dextro and racemic forms of 1,2,3,11 a-tetrahydro-5H-pyrrolo[2,1-c] [1,4]benzodiazepin-5,11(10H)-dione (U.S. Pat. No. 3,732,212) all of which were tested in exactly the same manner. It has been reported [R. T. Hill and D. R. Tedeschi, "Animal Testing and Screening Procedures in Evaluating Psychotropic Drugs" in An Introduction to Psychopharmacology, Eds. R. R. Rech and K. E. Moore, Raven Press, New York, pp. 237-288 (1971) that there is a high degree of correlation between antagonism of pentylenetetrazole seizures in rats and antianxiety effects in higher warm-blooded animals.

| SMILES | ED50 | effectiveness as anxiolytic agent relative to the respective dextrorotatory and racemic forms of the desmethyl prior art compound (Compounds 3 and 4) |
| --- | --- | --- |
| CN1C(=O)[C@@H]2CCCN2C(=O)c2ccccc21 [Compound 1, Dextro-1,2,3,11a-tetrahydro-10-methyl-5H-pyrrolo[2,1-c][1,4]benzodiazepin-5,11(10H)-dione] | 10 mg/kg | far more effective |
| O=C1Nc2ccccc2C(=O)N2CCCC12 (racemic) [Compound 4, Racemic-1,2,3,11a-tetrahydro-5H-pyrrolo[2,1-c]-[1,4]benzodiazepin-5,11(10H)-dione] | 70 mg/kg | – |
| O=C1Nc2ccccc2C(=O)N2CCC[C@@H]12 [Compound 3, Dextro-1,2,3,11a-tetrahydro-5H-pyrrolo[2,1-c]-[1,4]-benzodiazepin-5,11(10H)-dione] | 35 mg/kg | – |
| CNC1=Nc2ccc(Cl)cc2C(c2ccccc2)=[N+]([O-])C1 [Compound 5, chlordiazepoxide] | 2.5 mg/kg | – |
| CN1C(=O)CN=C(c2ccccc2)c2cc(Cl)ccc21 [Compound 6, diazepam] | 1.8 mg/kg | – |
| CN1C(=O)C2CCCN2C(=O)c2ccccc21 (racemic) [Compound 2, Racemic-1,2,3,11a-tetrahydro-10-methyl-5H-pyrrolo[2,1-c][1,4]benzodiazepin-5,11(10H)-dione] | 20 mg/kg | far more effective |
